Where two headings read alike, the source gives them in different places.
Columns and labels:
STAT6 = target: T1, STAT6 (Homo sapiens, UniProt P42226); experiment: STAT6 Reporter Luciferase Assay (IL-13 stimulated HaCaT keratinocyte NanoLuc reporter cells); type: cell-based; settings: read-out: Reporter EC50
T1 construct: stably transfected HaCaT keratinocyte cell line, which expresses NanoLuc luciferase reporter gene under the transcriptional control of the STAT6 responsive promoter; endogenous in cells; host or cells: HaCaT keratinocyte reporter cell line (stably transfected with a NanoLuc reporter)
T1 sequence (P42226 1-847): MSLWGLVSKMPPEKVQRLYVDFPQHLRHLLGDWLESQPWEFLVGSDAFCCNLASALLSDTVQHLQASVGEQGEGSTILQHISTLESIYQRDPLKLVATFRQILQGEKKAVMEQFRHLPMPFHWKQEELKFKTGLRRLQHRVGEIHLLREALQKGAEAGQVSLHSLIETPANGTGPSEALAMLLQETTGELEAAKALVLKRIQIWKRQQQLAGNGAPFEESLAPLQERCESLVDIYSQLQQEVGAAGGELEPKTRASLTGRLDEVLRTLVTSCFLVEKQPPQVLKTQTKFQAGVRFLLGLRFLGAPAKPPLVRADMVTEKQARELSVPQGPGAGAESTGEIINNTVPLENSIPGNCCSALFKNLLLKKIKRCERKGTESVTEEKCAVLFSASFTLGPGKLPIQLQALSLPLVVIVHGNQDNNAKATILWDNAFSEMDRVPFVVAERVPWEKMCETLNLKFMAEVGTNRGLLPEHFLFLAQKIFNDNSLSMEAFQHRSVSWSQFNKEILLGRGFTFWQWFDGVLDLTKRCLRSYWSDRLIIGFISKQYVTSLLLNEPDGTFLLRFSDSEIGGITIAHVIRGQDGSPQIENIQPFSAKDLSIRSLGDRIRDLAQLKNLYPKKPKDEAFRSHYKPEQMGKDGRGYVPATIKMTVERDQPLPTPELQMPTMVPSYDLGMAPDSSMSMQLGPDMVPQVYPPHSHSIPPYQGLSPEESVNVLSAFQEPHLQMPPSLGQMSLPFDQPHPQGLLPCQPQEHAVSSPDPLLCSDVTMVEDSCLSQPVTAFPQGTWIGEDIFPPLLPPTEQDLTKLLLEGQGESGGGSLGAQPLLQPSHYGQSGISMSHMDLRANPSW
Summary of the method: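 IL-13 (0.12 nM, 4 h) stimulated STAT6 reporter activity in HaCaT cells after a 2 h compound pre-incubation; NanoLuc signal was measured.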

[1] = tested on: CCL17 secretion in peripheral human whole blood; experiment: Human Whole Blood (HWB) CCL17 TR-FRET Assay (IL-13 stimulated CCL17 secretion); type: cell-based
Summary of the method: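 Heparin-anticoagulated human blood; cpd 11-pt 3-fold dilution, duplicate, 2 h 37 °C preinc; IL-13 10 ng/mL final, 48 h 37 °C; spin, serum CCL17 by TR-FRET ELISA, 16 h RT, 665/615 ratio; IC50.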

[2] = IL-13 stimulated HaCaT STAT6 NanoLuc reporter cells
[3] = Homo sapiens, 48 h, human whole blood, IL-13 stimulated
[4] = STAT6 NanoLuc luciferase reporter, IL-13 stimulated HaCaT keratinocyte cells
[5] = Homo sapiens, 48 h, human whole blood, 10 ng/mL IL13, 48 hours
[6] = Homo sapiens, 48 h, inhibition of CCL17 secretion in human whole blood, 10 ng/mL IL13, 48 hours

Row | SMILES | EC50 (STAT6; [2]) [nM] | IC50 [1, 3] [nM] | also measured
1 | CC(C)n1nc(C(=O)NCc2ccc(NC(=O)N(C)C)cc2)c2c1[C@@H](C)CN(c1ncc(C(=O)NCc3ccc(NC(=O)N(C)C)cc3)cn1)C2 [Example 500, (S)-N-(4-(3,3-dimethylureido)benzyl)-5-(5-((4-(3,3-dimethylureido)benzyl)carbamoyl)pyrimidin-2-yl)-1-isopropyl-7-methyl-4,5,6,7-tetrahydro-1H-pyrazolo[4,3-c]pyridine-3-carboxamide] | 11 | 104 | –
2 | CC(C)C1CN(c2ccc(C(=O)N(C)C)cn2)Cc2c(C(=O)NCc3ccc(NC(=O)N(C)C)cc3)nn(C)c21 (racemic) [Example 265, rac-(R)-5-(5-(dimethylcarbamoyl)pyridin-2-yl)-N-(4-(3,3-dimethylureido)benzyl)-7-isopropyl-1-methyl-4,5,6,7-tetrahydro-1H-pyrazolo[4,3-c]pyridine-3-carboxamide] | 5 | 37 | –
3 | CC(C)n1nc(C(=O)NCc2ccc(NC(=O)N(C)C)cc2)c2c1[C@@H](C)CN(c1ncc(-c3nccn3C)cn1)C2 [Example 340, (S)-N-(4-(3,3-dimethylureido)benzyl)-1-isopropyl-7-methyl-5-(5-(1-methyl-1H-imidazol-2-yl)pyrimidin-2-yl)-4,5,6,7-tetrahydro-1H-pyrazolo[4,3-c]pyridine-3-carboxamide] | 276 | 2340 | –
4 | CC(C)n1ncc2c1CN(C(=O)c1ccc(N3CCc4c(c(C(=O)NCc5ccc(NC(=O)N(C)C)cc5)nn4C(C)C)C3)nc1)CC2 [Example 437, N-(4-(3,3-dimethylureido)benzyl)-1-isopropyl-5-(5-(1-isopropyl-4,5,6,7-tetrahydro-1H-pyrazolo[3,4-c]pyridine-6-carbonyl)pyridin-2-yl)-4,5,6,7-tetrahydro-1H-pyrazolo[4,3-c]pyridine-3-carboxamide] | 45 | 1050 | –
5 | CCC1Cc2c(c(C(=O)NCc3ccc(NC(=O)N(C)C)cc3)nn2CC)CN1c1ccc(C(=O)N(C)C)cn1 (single isomer, unassigned) [Example 118, rel-(R or S)-5-(5-(dimethylcarbamoyl)pyridin-2-yl)-N-(4-(3,3-dimethylureido)benzyl)-1,6-diethyl-4,5,6,7-tetrahydro-1H-pyrazolo[4,3-c]pyridine-3-carboxamide] | – | – | EC50 (STAT6; [4]): 25 nM; IC50 ([1]; inhibition of CCL17 secretion in human whole blood, 10 ng/mL IL13, 48 hours): 116 nM
6 | CC(C)n1nc(C(=O)NCc2ccc(NC(=O)N3CCN(C)CC3)cc2)c2c1[C@@H](C)CN(c1ccc(-n3ccccc3=O)cc1)C2 [Example 594, (S)-1-isopropyl-7-methyl-N-(4-(4-methylpiperazine-1-carboxamido)benzyl)-5-(4-(2-oxopyridin-1(2H)-yl)phenyl)-4,5,6,7-tetrahydro-1H-pyrazolo[4,3-c]pyridine-3-carboxamide] | 2 | – | IC50 [1, 5]: 25 nM
7 | CCn1nc(C(=O)NCc2ccc(NC(=O)N(C)C)cc2)c2c1[C@H](C)[C@@H](C)N(c1ncc(C(=O)N(C)C)cn1)C2 (single isomer, unassigned) [Example 446] | 15 | 80 | –
8 | CCn1nc(C(=O)NCc2ccc(NC(=O)N(C)C)nc2)c2c1[C@@H](C)CN(c1ncc(C(=O)N(C)C)cn1)C2 [Example 324, (S)-5-(5-(dimethylcarbamoyl)pyrimidin-2-yl)-N-((6-(3,3-dimethylureido)pyridin-3-yl)methyl)-1-ethyl-7-methyl-4,5,6,7-tetrahydro-1H-pyrazolo[4,3-c]pyridine-3-carboxamide] | 5 | 18 | –
9 | CC(C)n1nc(C(=O)NCc2ccc(NC(=O)N(C)C)cc2)c2c1CCN(c1ccc(NS(C)(=O)=O)cn1)C2 [Example 138, N-(4-(3,3-dimethylureido)benzyl)-1-isopropyl-5-(5-(methylsulfonamido)pyridin-2-yl)-4,5,6,7-tetrahydro-1H-pyrazolo[4,3-c]pyridine-3-carboxamide] | – | – | EC50 (STAT6; [4]): 248 nM; IC50 [1, 6]: 1140 nM
10 | CC(C)n1nc(C(=O)NCc2ccc(NC(=O)N(C)C)cc2)c2c1CCN(c1ccc(N3CCN(C)C3=O)cn1)C2 [Example 60, N-(4-(3,3-dimethylureido)benzyl)-1-isopropyl-5-(5-(3-methyl-2-oxoimidazolidin-1-yl)pyridin-2-yl)-4,5,6,7-tetrahydro-1H-pyrazolo[4,3-c]pyridine-3-carboxamide] | – | – | EC50 (STAT6; [4]): 32 nM; IC50 [1, 6]: 910 nM
11 | CCn1nc(C(=O)NCc2ccc(-c3ncc[nH]3)cc2)c2c1CCN(c1ccc(C(=O)N(C)C)cn1)C2 [Example 21, N-(4-(1H-imidazol-2-yl)benzyl)-5-(5-(dimethylcarbamoyl)pyridin-2-yl)-1-ethyl-4,5,6,7-tetrahydro-1H-pyrazolo[4,3-c]pyridine-3-carboxamide] | – | – | EC50 (STAT6; [4]): 33 nM; IC50 [1, 6]: 217 nM
12 | CC[C@H]1c2c(C(=O)NCc3ccc(NC(=O)N(C)C)cc3)nn(C(C)C)c2CCN1c1ccc(C(=O)N(C)C)cn1 (single isomer, unassigned) [Example 527] | 8870 | – | IC50 ([1]; human whole blood, 10 ng/mL IL13, 48 hours): > 25100 nM
13 | CC(C)n1nc(C(=O)NCc2ccc(NC(=O)N3CCNCC3)cc2Cl)c2c1[C@@H](C)CN(c1ccc(C(=O)N(C)C)cc1)C2 [Example 630, (S)-N-(2-chloro-4-(piperazine-1-carboxamido)benzyl)-5-(4-(dimethylcarbamoyl)phenyl)-1-isopropyl-7-methyl-4,5,6,7-tetrahydro-1H-pyrazolo[4,3-c]pyridine-3-carboxamide] | 9 | – | IC50 [1, 5]: 55 nM
14 | CNC(=O)c1ccc(N2CCc3c(c(C(=O)NCc4ccc(NC(N)=O)cc4)nn3C(C)C)C2)nc1 [Example 456, 1-isopropyl-5-(5-(methylcarbamoyl)pyridin-2-yl)-N-(4-ureidobenzyl)-4,5,6,7-tetrahydro-1H-pyrazolo[4,3-c]pyridine-3-carboxamide] | 742 | 579 | –
15 | CC(C)n1nc(C(=O)NCc2ccc(NC(=O)N3CCCCC3)cc2)c2c1CCN(c1ccc(C(=O)N(C)C)cn1)C2 [Example 144, 5-(5-(dimethylcarbamoyl)pyridin-2-yl)-1-isopropyl-N-(4-(piperidine-1-carboxamido)benzyl)-4,5,6,7-tetrahydro-1H-pyrazolo[4,3-c]pyridine-3-carboxamide] | – | – | EC50 (STAT6; [4]): 7 nM; IC50 [1, 6]: 292 nM
16 | CCn1nc(C(=O)NCc2ccc(NC(=O)N(C)C)cc2)c2c1[C@@H](C)CN(c1ncc(N3CCCC3=O)cn1)C2 [Example 488, (S)-N-(4-(3,3-dimethylureido)benzyl)-1-ethyl-7-methyl-5-(5-(2-oxopyrrolidin-1-yl)pyrimidin-2-yl)-4,5,6,7-tetrahydro-1H-pyrazolo[4,3-c]pyridine-3-carboxamide] | 3 | 27 | –
17 | CC(C)n1nc(C(=O)NCc2ccc(NC(=O)N3CCC4(CC3)CNC4)cc2)c2c1[C@@H](C)CN(c1ccc(C(=O)N(C)C)cc1)C2 [Example 623, (S)-N-(4-(2,7-diazaspiro[3.5]nonane-7-carboxamido)benzyl)-5-(4-(dimethylcarbamoyl)phenyl)-1-isopropyl-7-methyl-4,5,6,7-tetrahydro-1H-pyrazolo[4,3-c]pyridine-3-carboxamide] | 13 | – | IC50 [1, 5]: 37 nM
18 | COc1nccc2c1CN(C(=O)c1ccc(N3CCc4c(c(C(=O)NCc5ccc(NC(=O)N(C)C)cc5)nn4C(C)C)C3)nc1)CC2 [Example 375, N-(4-(3,3-dimethylureido)benzyl)-1-isopropyl-5-(5-(8-methoxy-1,2,3,4-tetrahydro-2,7-naphthyridine-2-carbonyl)pyridin-2-yl)-4,5,6,7-tetrahydro-1H-pyrazolo[4,3-c]pyridine-3-carboxamide] | 15 | 1960 | –
19 | CN(C)C(=O)Nc1ccc(CNC(=O)c2nn(CCC(N)=O)c3c2CN(c2ccc(C(=O)N(C)C)cn2)CC3)cc1 [Example 309, 1-(3-amino-3-oxopropyl)-5-(5-(dimethylcarbamoyl)pyridin-2-yl)-N-(4-(3,3-dimethylureido)benzyl)-4,5,6,7-tetrahydro-1H-pyrazolo[4,3-c]pyridine-3-carboxamide] | 1710 | 4100 | –

Reference: patent US20250320213A1, “Nitrogen-Containing Heterocyclic Compounds” (Pfizer Inc., priority 2024, published 2025)
